Assay results: ChEMBL document CHEMBL3124787, “Discovery of novel bis-oxazolidinone compounds as potential potent and selective antitubercular agents” (Bioorg Med Chem Lett, 2014)
Converted amounts (≈) assume the structure as drawn.

How the values were obtained:
Staphylococcus aureus [1] = assay: Antibacterial activity against methicillin-susceptible Staphylococcus aureus ATCC 29213 assessed as growth inhibition after 18 hrs by broth microdilution method; assay type: functional; conditions: ATCC 29213, 18 h
Staphylococcus aureus [2] = assay: Antibacterial activity against methicillin-susceptible Staphylococcus aureus CMCC 26003 assessed as growth inhibition after 18 hrs by broth microdilution method; assay type: functional; conditions: CMCC 26003, 18 h
Escherichia coli = assay: Antibacterial activity against Escherichia coli ATCC 25922 assessed as growth inhibition after 18 hrs by broth microdilution method; assay type: functional; conditions: ATCC 25922, 18 h
Vero = assay: Cytotoxicity against African green monkey Vero cells after 48 hrs by MTT assay; assay type: cell-based; conditions: Chlorocebus sabaeus
Pseudomonas aeruginosa = assay: Antibacterial activity against Pseudomonas aeruginosa ATCC 27853 assessed as growth inhibition after 18 hrs by broth microdilution method; assay type: functional; conditions: ATCC 27853, 18 h
Staphylococcus aureus [3] = assay: Antibacterial activity against methicillin-resistant Staphylococcus aureus ATCC 33591 assessed as growth inhibition after 18 hrs by broth microdilution method; assay type: functional; conditions: ATCC 33591, 18 h
Staphylococcus aureus [4] = assay: Antibacterial activity against methicillin-resistant Staphylococcus aureus ATCC 43300 assessed as growth inhibition after 18 hrs by broth microdilution method; assay type: functional; conditions: ATCC 43300, 18 h
[5] = system: Mycobacterium tuberculosis; assay: Antitubercular activity against Mycobacterium tuberculosis H37RV ATCC 27294 assessed as growth inhibition after 3 to 11 days by microdilution method; assay type: functional
[6] = Selectivity index, ratio of IC50 for African green monkey Vero cells to MIC for Mycobacterium tuberculosis H37RV ATCC 27294; assay type: toxicity, cell-based; conditions: read-out: Selectivity Index
[7] = Lipophilicity, log P of the compound by HPLC analysis; assay type: physicochemical
[8] = system: Mycolicibacterium smegmatis; assay: Antibacterial activity against Mycobacterium smegmatis assessed as growth inhibition after 18 hrs by broth microdilution method; assay type: functional
Staphylococcus aureus [9] = assay: Antibacterial activity against methicillin-susceptible Staphylococcus aureus ATCC 6538 assessed as growth inhibition after 18 hrs by broth microdilution method; assay type: functional; conditions: ATCC 6538, 18 h
[10] = Aqueous solubility of the compound by HPLC analysis; assay type: physicochemical
Staphylococcus aureus [11] = assay: Antibacterial activity against methicillin-susceptible Staphylococcus aureus ATCC 25923 assessed as growth inhibition after 18 hrs by broth microdilution method; assay type: functional; conditions: ATCC 25923, 18 h

SMILES	MIC99 (Staphylococcus aureus [1])	MIC99 (Staphylococcus aureus [2])	MIC99 (Escherichia coli)	IC50 (Vero)	MIC99 (Pseudomonas aeruginosa)	MIC99 (Staphylococcus aureus [3])	MIC99 (Staphylococcus aureus [4])	MIC [5]	selectivity ratio [6]	logP [7]	MIC99 [8]	MIC99 (Staphylococcus aureus [9])	solubility [10]	MIC99 (Staphylococcus aureus [11])
CC(=O)NC[C@H]1CN(c2ccc(OC[C@@H]3CN(c4ccccc4)C(=O)O3)c(F)c2)C(=O)O1	16 µg/mL (≈ 36.1 µM)	16 µg/mL (≈ 36.1 µM)	> 32 µg/mL	> 5000 µg/mL	> 32 µg/mL	16 µg/mL (≈ 36.1 µM)	16 µg/mL (≈ 36.1 µM)	0.125 µg/mL (≈ 0.282 µM)	> 40000	1.78	> 64 µg/mL	8 µg/mL (≈ 18 µM)	14 µM (≈ 6.21 µg/mL)	16 µg/mL (≈ 36.1 µM)
CC(=O)NC[C@H]1CN(c2ccc(OC[C@H]3CN(c4ccccc4)C(=O)O3)c(F)c2)C(=O)O1	8 µg/mL (≈ 18 µM)	4 µg/mL (≈ 9.02 µM)	> 32 µg/mL	63.6 µg/mL (≈ 143 µM)	> 32 µg/mL	16 µg/mL (≈ 36.1 µM)	8 µg/mL (≈ 18 µM)	0.25 µg/mL (≈ 0.564 µM)	254	1.86	32 µg/mL (≈ 72.2 µM)	4 µg/mL (≈ 9.02 µM)	164 µM (≈ 72.7 µg/mL)	8 µg/mL (≈ 18 µM)
